System: 885724-159-R-J1-PDC spheroids viability
Assay: Anticancer human tumor 885724-159-R-J1-PDC patient-derived pancreatic adenocarcinoma cell line growth inhibition [TAK]
Settings: spheroids with HUVEC and MSC; for IC50: curve of first compound; for viability, T/C: stronger effect = lower value
Outline: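 Tumor cells were grown as spheroids with HUVEC and hMSC (60:25:15) and treated with targeted agents combined with TAK-243 or ipatasertib. Drugs were tested in half-log steps down from near the clinical Cmax, or from 10 microM where Cmax was unknown.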

[1] = second compound 0.3 µM, first compound 0.000316 µM
[2] = second compound 0.3 µM, first compound 0.001 µM
[3] = second compound 0.3 µM, first compound 0.00316 µM
[4] = second compound 0.3 µM, first compound 0.01 µM
[5] = second compound 0.3 µM, first compound 0.0316 µM
[6] = second compound 0.3 µM, first compound 0.1 µM
[7] = second compound 0.949 µM, first compound 0.000316 µM
[8] = second compound 0.949 µM, first compound 0.001 µM
[9] = second compound 0.949 µM, first compound 0.00316 µM
[10] = second compound 0.949 µM, first compound 0.01 µM
[11] = second compound 0.949 µM, first compound 0.0316 µM
[12] = second compound 0.949 µM, first compound 0.1 µM
[13] = second compound 3 µM, first compound 0.000316 µM
[14] = second compound 3 µM, first compound 0.001 µM
[15] = second compound 3 µM, first compound 0.00316 µM
[16] = second compound 3 µM, first compound 0.01 µM
[17] = second compound 3 µM, first compound 0.0316 µM
[18] = second compound 3 µM, first compound 0.1 µM
[19] = second compound 9.49 µM, first compound 0.000316 µM
[20] = second compound 9.49 µM, first compound 0.001 µM
[21] = second compound 9.49 µM, first compound 0.00316 µM
[22] = second compound 9.49 µM, first compound 0.01 µM
[23] = second compound 9.49 µM, first compound 0.0316 µM
[24] = second compound 9.49 µM, first compound 0.1 µM
[25] = second compound 30 µM, first compound 0.000316 µM
[26] = second compound 30 µM, first compound 0.001 µM
[27] = second compound 30 µM, first compound 0.00316 µM
[28] = second compound 30 µM, first compound 0.01 µM
[29] = second compound 30 µM, first compound 0.0316 µM
[30] = second compound 30 µM, first compound 0.1 µM
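Also: spheroids exposed to drugs for seven days.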
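For viability, T/C in this document: 100% = DMSO vehicle control viability.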

Q: How did the IC50 (second compound 0.3 µM) turn out when `Cn1cnc2c(F)c(Nc3ccc(Br)cc3Cl)c(C(=O)NOCCO)cc21` + CC(C)NCC(C(=O)N1CCN(c2ncnc3c2C(C)CC3O)CC1)c1ccc(Cl)cc1 was run?
A: < 9.49 nM

Q: And the IC50 (second compound 0.949 µM)?
A: < 9.49 nM

Q: What about the IC50 (second compound 3 µM) of the same molecule?
A: < 9.49 nM

Q: And the IC50 (second compound 9.49 µM)?
A: < 9.49 nM

Q: What about the IC50 (second compound 30 µM) of the same molecule?
A: < 9.49 nM

Q: What about the viability, T/C (second compound 0.3 µM, first compound 0.00949 µM) of the same molecule?
A: 49.1%

Q: And the viability, T/C (second compound 0.3 µM, first compound 0.03 µM)?
A: 42.5%

Q: What about the viability, T/C (second compound 0.3 µM, first compound 0.0949 µM) of the same molecule?
A: 29.3%

Q: What about the viability, T/C (second compound 0.3 µM, first compound 0.3 µM) of the same molecule?
A: 24.9%

Q: What about the viability, T/C (second compound 0.3 µM, first compound 0.949 µM) of the same molecule?
A: 18.8%

Q: What about the viability, T/C (second compound 0.3 µM, first compound 3 µM) of the same molecule?
A: 14.1%

Q: What about the viability, T/C (second compound 0.949 µM, first compound 0.00949 µM) of the same molecule?
A: 45.2%

Q: What about the viability, T/C (second compound 0.949 µM, first compound 0.03 µM) of the same molecule?
A: 41.2%

Q: And the viability, T/C (second compound 0.949 µM, first compound 0.0949 µM)?
A: 30.5%

Q: What about the viability, T/C (second compound 0.949 µM, first compound 0.3 µM) of the same molecule?
A: 22.6%

Q: And the viability, T/C (second compound 0.949 µM, first compound 0.949 µM)?
A: 16.6%

Q: What about the viability, T/C (second compound 0.949 µM, first compound 3 µM) of the same molecule?
A: 10.3%

Q: And the viability, T/C (second compound 3 µM, first compound 0.00949 µM)?
A: 42%

Q: And the viability, T/C (second compound 3 µM, first compound 0.03 µM)?
A: 37.1%

Q: What about the viability, T/C (second compound 3 µM, first compound 0.0949 µM) of the same molecule?
A: 27.5%

Q: And the viability, T/C (second compound 3 µM, first compound 0.3 µM)?
A: 18.7%

Q: What about the viability, T/C (second compound 3 µM, first compound 0.949 µM) of the same molecule?
A: 12.6%

Q: What about the viability, T/C (second compound 3 µM, first compound 3 µM) of the same molecule?
A: 7.23%

Q: What about the viability, T/C (second compound 9.49 µM, first compound 0.00949 µM) of the same molecule?
A: 36.7%

Q: What about the viability, T/C (second compound 9.49 µM, first compound 0.03 µM) of the same molecule?
A: 27.9%

Q: What about the viability, T/C (second compound 9.49 µM, first compound 0.0949 µM) of the same molecule?
A: 16.8%

Q: And the viability, T/C (second compound 9.49 µM, first compound 0.3 µM)?
A: 13.7%

Q: And the viability, T/C (second compound 9.49 µM, first compound 0.949 µM)?
A: 9.53%

Q: What about the viability, T/C (second compound 9.49 µM, first compound 3 µM) of the same molecule?
A: 4.7%

Q: And the viability, T/C (second compound 30 µM, first compound 0.00949 µM)?
A: 20.5%

Q: What about the viability, T/C (second compound 30 µM, first compound 0.03 µM) of the same molecule?
A: 13.7%

Q: What about the viability, T/C (second compound 30 µM, first compound 0.0949 µM) of the same molecule?
A: 9.15%

Q: What about the viability, T/C (second compound 30 µM, first compound 0.3 µM) of the same molecule?
A: 5.41%

Q: What about the viability, T/C (second compound 30 µM, first compound 0.949 µM) of the same molecule?
A: 3.69%

Q: What about the viability, T/C (second compound 30 µM, first compound 3 µM) of the same molecule?
A: 2.03%

Q: `COC1CC2CCC(C)C(O)(O2)C(=O)C(=O)N2CCCCC2C(=O)OC(C(C)CC2CCC(OCCO)C(OC)C2)CC(=O)C(C)C=C(C)C(O)C(OC)C(=O)C(C)CC(C)C=CC=CC=C1C` (stereo not given) + CC(C)NCC(C(=O)N1CCN(c2ncnc3c2C(C)CC3O)CC1)c1ccc(Cl)cc1 was tested. Which IC50 (second compound 0.3 µM) did it give?
A: > 100 nM

Q: And the IC50 (second compound 0.949 µM)?
A: > 100 nM

Q: And the IC50 (second compound 3 µM)?
A: 28.3 nM

Q: And the IC50 (second compound 9.49 µM)?
A: < 0.316 nM

Q: What about the IC50 (second compound 30 µM) of the same molecule?
A: < 0.316 nM

Q: And the viability, T/C [1]?
A: 68.2%

Q: What about the viability, T/C [2] of the same molecule?
A: 62.3%

Q: What about the viability, T/C [3] of the same molecule?
A: 62.3%

Q: And the viability, T/C [4]?
A: 58.5%

Q: What about the viability, T/C [5] of the same molecule?
A: 57.4%

Q: And the viability, T/C [6]?
A: 56.3%

Q: What about the viability, T/C [7] of the same molecule?
A: 63.1%

Q: What about the viability, T/C [8] of the same molecule?
A: 58.5%

Q: What about the viability, T/C [9] of the same molecule?
A: 56.4%

Q: What about the viability, T/C [10] of the same molecule?
A: 59.3%

Q: What about the viability, T/C [11] of the same molecule?
A: 58.4%

Q: What about the viability, T/C [12] of the same molecule?
A: 61.2%

Q: What about the viability, T/C [13] of the same molecule?
A: 60.5%

Q: And the viability, T/C [14]?
A: 60.4%

Q: What about the viability, T/C [15] of the same molecule?
A: 53.3%

Q: And the viability, T/C [16]?
A: 50.7%

Q: And the viability, T/C [17]?
A: 52.5%

Q: What about the viability, T/C [18] of the same molecule?
A: 46.2%

Q: And the viability, T/C [19]?
A: 48.2%

Q: And the viability, T/C [20]?
A: 49.6%

Q: And the viability, T/C [21]?
A: 47.3%

Q: What about the viability, T/C [22] of the same molecule?
A: 41.4%

Q: What about the viability, T/C [23] of the same molecule?
A: 42.5%

Q: And the viability, T/C [24]?
A: 39.4%

Q: What about the viability, T/C [25] of the same molecule?
A: 31.3%

Q: And the viability, T/C [26]?
A: 27.5%

Q: What about the viability, T/C [27] of the same molecule?
A: 27.5%

Q: What about the viability, T/C [28] of the same molecule?
A: 23.8%

Q: What about the viability, T/C [29] of the same molecule?
A: 29.3%

Q: What about the viability, T/C [30] of the same molecule?
A: 25.5%

Q: Which IC50 (second compound 0.3 µM) does the source give for `CC(C)CC(NC(=O)CNC(=O)c1cc(Cl)ccc1Cl)B1OC(=O)CC(CC(=O)O)(C(=O)O)O1` (stereo not given) + CC(C)NCC(C(=O)N1CCN(c2ncnc3c2C(C)CC3O)CC1)c1ccc(Cl)cc1 here?
A: 13.8 nM

Q: What about the IC50 (second compound 0.949 µM) of the same molecule?
A: 12.1 nM

Q: What about the IC50 (second compound 3 µM) of the same molecule?
A: 11.6 nM

Q: What about the IC50 (second compound 9.49 µM) of the same molecule?
A: < 0.316 nM

Q: What about the IC50 (second compound 30 µM) of the same molecule?
A: < 0.316 nM

Q: What about the viability, T/C [1] of the same molecule?
A: 66.6%

Q: And the viability, T/C [2]?
A: 66.3%

Q: What about the viability, T/C [3] of the same molecule?
A: 63.6%

Q: And the viability, T/C [4]?
A: 63.3%

Q: What about the viability, T/C [5] of the same molecule?
A: 15.4%

Q: And the viability, T/C [6]?
A: 1.16%

Q: And the viability, T/C [7]?
A: 57.5%

Q: And the viability, T/C [8]?
A: 61%

Q: What about the viability, T/C [9] of the same molecule?
A: 62.2%

Q: And the viability, T/C [10]?
A: 58.3%

Q: What about the viability, T/C [11] of the same molecule?
A: 8.98%

Q: What about the viability, T/C [12] of the same molecule?
A: 1.18%

Q: What about the viability, T/C [13] of the same molecule?
A: 55.5%

Q: And the viability, T/C [14]?
A: 58.3%

Q: And the viability, T/C [15]?
A: 53.1%

Q: And the viability, T/C [16]?
A: 55.9%

Q: What about the viability, T/C [17] of the same molecule?
A: 11.1%

Q: What about the viability, T/C [18] of the same molecule?
A: 0.99%

Q: And the viability, T/C [19]?
A: 48.5%

Q: What about the viability, T/C [20] of the same molecule?
A: 52.1%

Q: What about the viability, T/C [21] of the same molecule?
A: 48.5%

Q: What about the viability, T/C [22] of the same molecule?
A: 46.1%

Q: And the viability, T/C [23]?
A: 9.27%

Q: What about the viability, T/C [24] of the same molecule?
A: 1.07%

Q: And the viability, T/C [25]?
A: 33.9%

Q: What about the viability, T/C [26] of the same molecule?
A: 33.5%

Q: And the viability, T/C [27]?
A: 34.7%

Q: What about the viability, T/C [28] of the same molecule?
A: 32.9%

Q: What about the viability, T/C [29] of the same molecule?
A: 7.76%

Q: What about the viability, T/C [30] of the same molecule?
A: 0.71%

Q: Which viability, T/C (compound 0.3 µM) does the source give for `CC(C)NCC(C(=O)N1CCN(c2ncnc3c2C(C)CC3O)CC1)c1ccc(Cl)cc1` (stereo not given) here?
A: 64.1% [middle of 10 runs]

Q: And the viability, T/C (compound 0.949 µM)?
A: 60.5% [middle of 10 runs]

Q: And the viability, T/C (compound 3 µM)?
A: 55.2% [middle of 10 runs]

Q: And the viability, T/C (compound 9.49 µM)?
A: 47.5% [middle of 10 runs]

Q: What about the viability, T/C (compound 30 µM) of the same molecule?
A: 32.8% [middle of 10 runs]
